Experimental data from BigSolDB 2.1.

Oc1ccc([C@@H]2COc3cc(O)ccc3C2)cc1
solubility (mole fraction)
Conditions	in isobutanol	in isopentanol	in isopropanol	in n-butanol	in n-heptane	in n-pentanol
273.15 K	0.0174	0.0226	0.0295	0.0242	0.000431	0.0235
278.15 K	0.02	0.0261	0.035	0.0284	0.00049	0.0273
283.15 K	0.0229	0.0301	0.0412	0.0331	0.000554	0.0317
288.15 K	0.0261	0.0345	0.0482	0.0384	0.000624	0.0365
293.15 K	0.0296	0.0394	0.0561	0.0442	0.000699	0.0419
298.15 K	0.0334	0.0447	0.065	0.0508	0.000781	0.0478
303.15 K	0.0376	0.0506	0.0749	0.0581	0.00087	0.0544
308.15 K	0.0421	0.057	0.086	0.0661	0.000964	0.0616
313.15 K	0.047	0.0639	0.0982	0.0749	0.00107	0.0695
318.15 K	0.0523	0.0715	0.112	0.0846	0.00117	0.078
323.15 K	0.058	0.0797	0.127	0.0951	0.00129	0.0874
328.15 K	0.0641	0.0885	0.143	0.107	0.00141	0.0975
333.15 K	0.0706	0.098	0.161	0.119	0.00155	0.108
